# ChEMBL document CHEMBL1201862, “PubChem BioAssay data set” (2004)
# Active and inactive are the calls of the source.
# Experiments:
# [1] = target: T1, Short transient receptor potential channel 4 (Mus musculus, UniProt Q9QUQ5); experiment: mouse TRPC4 channel inhibitors, dose response, cell-based, HEK293 TRPC4/mu-opioid, Fluo-4 calcium (AID 434942); type: functional;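 also: potency of inhibitors blocking the TRPC4 calcium response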
# T1 sequence (Q9QUQ5 whole entry): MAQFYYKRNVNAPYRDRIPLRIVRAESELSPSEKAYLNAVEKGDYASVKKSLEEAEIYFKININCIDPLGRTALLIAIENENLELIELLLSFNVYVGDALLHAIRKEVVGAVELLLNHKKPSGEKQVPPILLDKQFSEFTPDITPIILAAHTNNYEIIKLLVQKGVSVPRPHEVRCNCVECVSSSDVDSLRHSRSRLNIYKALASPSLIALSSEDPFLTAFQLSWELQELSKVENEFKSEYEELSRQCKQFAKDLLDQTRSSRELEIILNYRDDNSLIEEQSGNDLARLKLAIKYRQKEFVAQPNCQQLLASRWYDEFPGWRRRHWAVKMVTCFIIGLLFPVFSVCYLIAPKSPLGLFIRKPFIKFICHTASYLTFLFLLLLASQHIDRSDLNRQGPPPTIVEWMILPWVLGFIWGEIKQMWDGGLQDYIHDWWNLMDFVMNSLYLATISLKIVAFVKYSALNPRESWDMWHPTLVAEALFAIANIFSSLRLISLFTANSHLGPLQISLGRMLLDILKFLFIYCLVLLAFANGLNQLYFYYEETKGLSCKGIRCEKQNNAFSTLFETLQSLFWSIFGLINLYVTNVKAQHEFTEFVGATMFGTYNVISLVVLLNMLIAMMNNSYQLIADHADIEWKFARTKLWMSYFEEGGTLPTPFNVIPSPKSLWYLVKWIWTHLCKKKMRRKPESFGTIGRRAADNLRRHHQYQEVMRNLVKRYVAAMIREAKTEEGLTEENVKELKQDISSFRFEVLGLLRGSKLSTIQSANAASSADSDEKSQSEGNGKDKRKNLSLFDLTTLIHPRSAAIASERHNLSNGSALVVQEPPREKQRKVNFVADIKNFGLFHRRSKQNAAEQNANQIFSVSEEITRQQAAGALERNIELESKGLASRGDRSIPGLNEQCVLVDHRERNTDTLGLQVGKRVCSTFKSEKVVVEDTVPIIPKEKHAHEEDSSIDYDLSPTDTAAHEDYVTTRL
# [2] = target: T2, Tyrosine-protein phosphatase non-receptor type 22 (Homo sapiens, UniProt Q9Y2R2); type: functional
# T2 sequence (Q9Y2R2 whole entry): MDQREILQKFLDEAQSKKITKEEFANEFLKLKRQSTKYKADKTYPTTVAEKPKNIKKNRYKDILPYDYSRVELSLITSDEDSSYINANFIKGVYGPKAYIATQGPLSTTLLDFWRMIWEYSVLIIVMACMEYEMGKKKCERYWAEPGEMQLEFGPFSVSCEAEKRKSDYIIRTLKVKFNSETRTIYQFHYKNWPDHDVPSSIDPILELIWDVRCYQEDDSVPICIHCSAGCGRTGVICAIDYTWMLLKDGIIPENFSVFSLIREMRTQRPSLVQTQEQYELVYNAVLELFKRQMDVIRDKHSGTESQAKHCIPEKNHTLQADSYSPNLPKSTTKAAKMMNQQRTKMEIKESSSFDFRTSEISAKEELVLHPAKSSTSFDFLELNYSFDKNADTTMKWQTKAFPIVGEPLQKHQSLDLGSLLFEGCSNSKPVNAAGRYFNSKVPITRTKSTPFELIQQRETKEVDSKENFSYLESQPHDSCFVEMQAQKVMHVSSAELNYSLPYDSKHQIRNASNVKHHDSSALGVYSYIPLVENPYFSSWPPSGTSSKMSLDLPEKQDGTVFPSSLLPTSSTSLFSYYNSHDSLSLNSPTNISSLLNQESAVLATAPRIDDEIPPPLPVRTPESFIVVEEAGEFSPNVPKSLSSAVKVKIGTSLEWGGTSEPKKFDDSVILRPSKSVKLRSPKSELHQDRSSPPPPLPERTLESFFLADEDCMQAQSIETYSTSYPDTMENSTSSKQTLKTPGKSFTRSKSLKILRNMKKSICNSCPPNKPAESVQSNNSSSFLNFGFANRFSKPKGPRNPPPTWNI
# [3] = target: T3, Tyrosine-protein phosphatase non-receptor type 7 (Homo sapiens, UniProt P35236); type: functional
# T3 sequence (P35236 whole entry): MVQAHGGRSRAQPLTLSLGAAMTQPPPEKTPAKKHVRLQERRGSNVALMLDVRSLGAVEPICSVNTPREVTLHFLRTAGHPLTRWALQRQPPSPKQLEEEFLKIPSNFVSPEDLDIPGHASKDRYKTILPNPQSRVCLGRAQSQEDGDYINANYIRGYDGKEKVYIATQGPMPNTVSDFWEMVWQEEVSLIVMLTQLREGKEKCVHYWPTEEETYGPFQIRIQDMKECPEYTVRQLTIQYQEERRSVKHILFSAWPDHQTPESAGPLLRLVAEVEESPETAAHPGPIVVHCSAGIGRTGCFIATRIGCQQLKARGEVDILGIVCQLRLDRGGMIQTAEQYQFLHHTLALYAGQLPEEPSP
# [4] = target: T2, Tyrosine-protein phosphatase non-receptor type 22; type: functional; remark: listed apart in the source
# [5] = cytotoxicity in HEK-293T cells, dose response, cytotoxicity control for TCR NF-kB inhibitor project, luminescence, T-cell screen hits (AID 489026); type: functional, cell-based;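 also: cells exposed to compound about 14 hours before the viability readout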
# [6] = Intein inhibitors as potential Tuberculosis drugs, a cytotoxicity screen. [Related pubchem assays (depositor defined):AID2221, AID2223, AID434968, AID435010, AID449749, AID449750, AID489010]; type: functional
# [7] = target: T4, Replicative DNA helicase DnaB (Mycobacterium tuberculosis, UniProt P9WMR3); experiment: DnaB intein splicing inhibitors, dose response, biochemical, cell-free fluorescence (AID 449749); type: functional
# T4 sequence (P9WMR3 whole entry): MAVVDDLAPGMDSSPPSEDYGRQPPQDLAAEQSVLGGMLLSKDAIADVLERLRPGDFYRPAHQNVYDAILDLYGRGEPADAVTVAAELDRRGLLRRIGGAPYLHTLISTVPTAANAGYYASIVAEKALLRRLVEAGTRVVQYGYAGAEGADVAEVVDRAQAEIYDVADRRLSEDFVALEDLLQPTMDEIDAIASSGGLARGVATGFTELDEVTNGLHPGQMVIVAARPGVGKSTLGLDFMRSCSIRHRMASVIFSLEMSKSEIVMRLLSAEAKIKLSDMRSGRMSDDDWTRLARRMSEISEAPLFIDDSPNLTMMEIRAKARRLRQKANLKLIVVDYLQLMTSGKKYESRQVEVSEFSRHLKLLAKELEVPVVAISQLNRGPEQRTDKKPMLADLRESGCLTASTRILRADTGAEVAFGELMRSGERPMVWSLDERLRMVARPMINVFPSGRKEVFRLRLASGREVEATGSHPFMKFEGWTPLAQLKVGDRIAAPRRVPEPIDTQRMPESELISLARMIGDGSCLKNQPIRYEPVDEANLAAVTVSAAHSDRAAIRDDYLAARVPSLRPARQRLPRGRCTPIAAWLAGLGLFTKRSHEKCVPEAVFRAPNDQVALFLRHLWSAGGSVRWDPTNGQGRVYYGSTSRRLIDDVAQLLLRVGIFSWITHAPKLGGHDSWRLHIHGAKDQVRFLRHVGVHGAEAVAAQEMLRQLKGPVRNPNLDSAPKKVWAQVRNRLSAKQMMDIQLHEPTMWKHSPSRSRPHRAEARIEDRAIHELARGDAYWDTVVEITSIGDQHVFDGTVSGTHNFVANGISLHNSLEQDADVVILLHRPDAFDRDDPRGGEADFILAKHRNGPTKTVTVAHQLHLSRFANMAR
# Protein RecA = target: T5, Protein RecA (Mycobacterium tuberculosis, UniProt P9WHJ3); experiment: Fluorescence Cell-Free Homogeneous Dose Retest to Identify Inhibitors of RecA-Intein Splicing Activity. [Related pubchem assays (depositor defined):AID2097, AID2223, AID489010, AID492950]; type: functional
# T5 sequence (P9WHJ3 whole entry): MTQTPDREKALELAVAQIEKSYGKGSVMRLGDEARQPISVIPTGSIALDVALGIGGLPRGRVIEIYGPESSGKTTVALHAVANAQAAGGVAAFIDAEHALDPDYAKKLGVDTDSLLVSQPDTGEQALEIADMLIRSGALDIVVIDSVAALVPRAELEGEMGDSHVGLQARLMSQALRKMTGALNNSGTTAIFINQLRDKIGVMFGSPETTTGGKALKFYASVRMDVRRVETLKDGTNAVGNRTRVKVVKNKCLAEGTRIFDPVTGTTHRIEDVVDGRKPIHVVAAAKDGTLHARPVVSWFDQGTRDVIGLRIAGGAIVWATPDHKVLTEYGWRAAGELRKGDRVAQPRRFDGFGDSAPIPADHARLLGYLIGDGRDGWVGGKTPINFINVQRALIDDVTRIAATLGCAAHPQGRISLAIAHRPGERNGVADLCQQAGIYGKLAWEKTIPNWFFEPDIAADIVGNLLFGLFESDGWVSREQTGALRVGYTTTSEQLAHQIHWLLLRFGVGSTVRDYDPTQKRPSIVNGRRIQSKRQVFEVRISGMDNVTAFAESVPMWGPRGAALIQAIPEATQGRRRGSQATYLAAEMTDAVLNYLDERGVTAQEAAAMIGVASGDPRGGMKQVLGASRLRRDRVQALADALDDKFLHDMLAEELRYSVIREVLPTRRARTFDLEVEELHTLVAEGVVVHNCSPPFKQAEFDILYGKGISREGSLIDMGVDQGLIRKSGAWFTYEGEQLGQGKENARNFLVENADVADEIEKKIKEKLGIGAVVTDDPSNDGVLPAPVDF
# [8] = target: Voltage-dependent T-type calcium channel subunit alpha-1H (Homo sapiens, UniProt O95180); type: functional;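 also: channel activity triggered by adding a high calcium stimulation buffer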
# X-box-binding protein 1 = target: T6, X-box-binding protein 1 (Homo sapiens, UniProt P17861); type: functional, Cricetulus griseus;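 also: confirmatory dose-response counter-screen serving a CHOP assay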
# T6 sequence (P17861 whole entry): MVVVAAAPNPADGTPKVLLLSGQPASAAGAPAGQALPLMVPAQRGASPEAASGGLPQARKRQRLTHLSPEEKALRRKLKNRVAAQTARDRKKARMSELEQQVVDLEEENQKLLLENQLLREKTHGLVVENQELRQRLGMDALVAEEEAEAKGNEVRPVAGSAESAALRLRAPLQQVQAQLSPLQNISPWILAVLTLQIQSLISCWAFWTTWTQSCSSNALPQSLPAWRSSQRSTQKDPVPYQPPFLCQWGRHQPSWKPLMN
# SUMO-activating enzyme = SUMO-activating enzyme (Homo sapiens, UniProt Q9UBT2); experiment: SUMOylation inhibitor hit validation, confirmation, SUMOylation inhibitor project, biochemical, AlphaScreen (AID 2018); type: functional
# [9] = target: T7, E3 ubiquitin-protein ligase XIAP (Homo sapiens, UniProt P98170); experiment: Counter Screen using XIAP-Bir3 for Chemical Antagonists of Bir1/2 domains of IAP-family anti-apoptotic proteins. [Related pubchem assays (depositor defined):AID1018, AID1449, AID1514, AID1638, AID1749, AID1750, AID488957, AID488963]
# [10] = target: T7, E3 ubiquitin-protein ligase XIAP; experiment: XIAP antagonists, biochemical, IAP family, fluorescence polarization (AID 1018); type: functional
# [11] = target: T8, Alkaline phosphatase, tissue-nonspecific isozyme (Homo sapiens, UniProt P05186); experiment: human TNAP enzyme inhibitors, SAR follow-up, biochemical, luminescent, dose response (AID 1056)
# T8 sequence (P05186 whole entry): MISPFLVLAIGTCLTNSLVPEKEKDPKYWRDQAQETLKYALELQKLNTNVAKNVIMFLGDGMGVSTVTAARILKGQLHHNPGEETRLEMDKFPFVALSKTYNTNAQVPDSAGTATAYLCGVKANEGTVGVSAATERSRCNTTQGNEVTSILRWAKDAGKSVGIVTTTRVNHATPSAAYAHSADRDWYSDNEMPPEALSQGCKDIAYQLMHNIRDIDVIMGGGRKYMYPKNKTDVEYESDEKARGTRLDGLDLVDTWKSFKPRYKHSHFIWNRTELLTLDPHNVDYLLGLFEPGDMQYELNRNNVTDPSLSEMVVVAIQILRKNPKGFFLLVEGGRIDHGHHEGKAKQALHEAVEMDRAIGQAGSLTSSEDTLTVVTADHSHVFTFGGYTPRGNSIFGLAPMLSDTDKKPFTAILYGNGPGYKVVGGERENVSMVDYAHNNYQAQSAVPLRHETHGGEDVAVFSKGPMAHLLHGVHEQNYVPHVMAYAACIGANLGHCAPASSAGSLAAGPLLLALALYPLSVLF
# [12] = target: Alkaline phosphatase, placental type (Homo sapiens, UniProt P05187); experiment: PLAP enzyme inhibitors, confirmation, biochemical, luminescence (AID 1512); type: functional
# 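For CC50 in this document: cells exposed to compound for 72 hours before luminescence readout.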
# Sequence of Alkaline phosphatase, placental type (P05187 whole entry): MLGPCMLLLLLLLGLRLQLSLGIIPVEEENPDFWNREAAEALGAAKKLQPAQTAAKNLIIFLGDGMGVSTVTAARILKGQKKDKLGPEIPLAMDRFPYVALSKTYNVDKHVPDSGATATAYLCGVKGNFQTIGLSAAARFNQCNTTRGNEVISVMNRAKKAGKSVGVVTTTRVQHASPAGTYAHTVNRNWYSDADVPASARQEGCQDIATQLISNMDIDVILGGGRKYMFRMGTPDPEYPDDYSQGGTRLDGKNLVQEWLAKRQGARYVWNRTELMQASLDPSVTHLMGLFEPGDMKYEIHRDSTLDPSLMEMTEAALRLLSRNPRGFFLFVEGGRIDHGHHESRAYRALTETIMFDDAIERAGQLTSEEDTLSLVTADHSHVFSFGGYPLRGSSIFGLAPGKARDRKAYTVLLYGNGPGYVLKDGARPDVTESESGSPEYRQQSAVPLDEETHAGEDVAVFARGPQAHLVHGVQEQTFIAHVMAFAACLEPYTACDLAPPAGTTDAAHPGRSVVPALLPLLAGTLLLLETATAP
# T7 sequence (P98170 whole entry): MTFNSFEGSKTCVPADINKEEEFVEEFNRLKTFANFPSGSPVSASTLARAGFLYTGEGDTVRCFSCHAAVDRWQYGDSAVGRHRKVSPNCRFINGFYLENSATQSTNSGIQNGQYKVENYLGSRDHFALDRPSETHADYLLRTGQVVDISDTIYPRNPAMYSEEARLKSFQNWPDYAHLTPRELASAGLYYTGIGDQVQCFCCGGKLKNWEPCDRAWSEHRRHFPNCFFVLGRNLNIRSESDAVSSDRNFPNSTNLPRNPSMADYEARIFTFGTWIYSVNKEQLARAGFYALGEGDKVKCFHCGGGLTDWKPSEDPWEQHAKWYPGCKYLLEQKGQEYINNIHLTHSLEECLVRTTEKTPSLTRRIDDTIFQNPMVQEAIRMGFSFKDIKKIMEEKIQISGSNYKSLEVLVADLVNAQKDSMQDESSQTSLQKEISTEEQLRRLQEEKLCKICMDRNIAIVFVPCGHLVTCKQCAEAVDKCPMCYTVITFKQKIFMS
# Sequence of SUMO-activating enzyme (Q9UBE0 whole entry): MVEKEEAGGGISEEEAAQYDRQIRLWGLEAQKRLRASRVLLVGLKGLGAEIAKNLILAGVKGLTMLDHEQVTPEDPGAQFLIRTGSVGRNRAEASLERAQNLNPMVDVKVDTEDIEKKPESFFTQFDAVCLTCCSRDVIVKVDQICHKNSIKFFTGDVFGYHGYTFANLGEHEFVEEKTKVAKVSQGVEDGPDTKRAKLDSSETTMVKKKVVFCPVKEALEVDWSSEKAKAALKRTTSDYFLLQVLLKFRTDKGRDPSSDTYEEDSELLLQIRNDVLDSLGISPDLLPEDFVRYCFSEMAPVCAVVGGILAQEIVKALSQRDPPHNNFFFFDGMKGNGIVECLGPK
# Sequence of SUMO-activating enzyme (Q9UBT2 whole entry): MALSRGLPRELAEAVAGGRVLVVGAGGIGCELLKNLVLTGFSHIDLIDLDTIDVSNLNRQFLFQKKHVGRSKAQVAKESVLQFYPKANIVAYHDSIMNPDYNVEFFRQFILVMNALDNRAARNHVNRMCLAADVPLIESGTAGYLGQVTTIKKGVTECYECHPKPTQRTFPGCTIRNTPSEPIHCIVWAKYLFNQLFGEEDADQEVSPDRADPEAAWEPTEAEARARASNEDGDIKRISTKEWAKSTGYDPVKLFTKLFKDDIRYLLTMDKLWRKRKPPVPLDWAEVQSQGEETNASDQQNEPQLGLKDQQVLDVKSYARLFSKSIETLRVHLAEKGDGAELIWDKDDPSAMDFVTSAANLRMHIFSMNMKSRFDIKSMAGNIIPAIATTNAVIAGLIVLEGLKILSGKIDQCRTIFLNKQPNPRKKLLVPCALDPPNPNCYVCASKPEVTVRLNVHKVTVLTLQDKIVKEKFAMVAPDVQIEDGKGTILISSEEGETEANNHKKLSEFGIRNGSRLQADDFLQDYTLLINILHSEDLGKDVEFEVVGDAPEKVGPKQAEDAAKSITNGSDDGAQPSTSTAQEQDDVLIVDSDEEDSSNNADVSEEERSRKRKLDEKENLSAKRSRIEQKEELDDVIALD
# Sequence of Voltage-dependent T-type calcium channel subunit alpha-1H (O95180 whole entry): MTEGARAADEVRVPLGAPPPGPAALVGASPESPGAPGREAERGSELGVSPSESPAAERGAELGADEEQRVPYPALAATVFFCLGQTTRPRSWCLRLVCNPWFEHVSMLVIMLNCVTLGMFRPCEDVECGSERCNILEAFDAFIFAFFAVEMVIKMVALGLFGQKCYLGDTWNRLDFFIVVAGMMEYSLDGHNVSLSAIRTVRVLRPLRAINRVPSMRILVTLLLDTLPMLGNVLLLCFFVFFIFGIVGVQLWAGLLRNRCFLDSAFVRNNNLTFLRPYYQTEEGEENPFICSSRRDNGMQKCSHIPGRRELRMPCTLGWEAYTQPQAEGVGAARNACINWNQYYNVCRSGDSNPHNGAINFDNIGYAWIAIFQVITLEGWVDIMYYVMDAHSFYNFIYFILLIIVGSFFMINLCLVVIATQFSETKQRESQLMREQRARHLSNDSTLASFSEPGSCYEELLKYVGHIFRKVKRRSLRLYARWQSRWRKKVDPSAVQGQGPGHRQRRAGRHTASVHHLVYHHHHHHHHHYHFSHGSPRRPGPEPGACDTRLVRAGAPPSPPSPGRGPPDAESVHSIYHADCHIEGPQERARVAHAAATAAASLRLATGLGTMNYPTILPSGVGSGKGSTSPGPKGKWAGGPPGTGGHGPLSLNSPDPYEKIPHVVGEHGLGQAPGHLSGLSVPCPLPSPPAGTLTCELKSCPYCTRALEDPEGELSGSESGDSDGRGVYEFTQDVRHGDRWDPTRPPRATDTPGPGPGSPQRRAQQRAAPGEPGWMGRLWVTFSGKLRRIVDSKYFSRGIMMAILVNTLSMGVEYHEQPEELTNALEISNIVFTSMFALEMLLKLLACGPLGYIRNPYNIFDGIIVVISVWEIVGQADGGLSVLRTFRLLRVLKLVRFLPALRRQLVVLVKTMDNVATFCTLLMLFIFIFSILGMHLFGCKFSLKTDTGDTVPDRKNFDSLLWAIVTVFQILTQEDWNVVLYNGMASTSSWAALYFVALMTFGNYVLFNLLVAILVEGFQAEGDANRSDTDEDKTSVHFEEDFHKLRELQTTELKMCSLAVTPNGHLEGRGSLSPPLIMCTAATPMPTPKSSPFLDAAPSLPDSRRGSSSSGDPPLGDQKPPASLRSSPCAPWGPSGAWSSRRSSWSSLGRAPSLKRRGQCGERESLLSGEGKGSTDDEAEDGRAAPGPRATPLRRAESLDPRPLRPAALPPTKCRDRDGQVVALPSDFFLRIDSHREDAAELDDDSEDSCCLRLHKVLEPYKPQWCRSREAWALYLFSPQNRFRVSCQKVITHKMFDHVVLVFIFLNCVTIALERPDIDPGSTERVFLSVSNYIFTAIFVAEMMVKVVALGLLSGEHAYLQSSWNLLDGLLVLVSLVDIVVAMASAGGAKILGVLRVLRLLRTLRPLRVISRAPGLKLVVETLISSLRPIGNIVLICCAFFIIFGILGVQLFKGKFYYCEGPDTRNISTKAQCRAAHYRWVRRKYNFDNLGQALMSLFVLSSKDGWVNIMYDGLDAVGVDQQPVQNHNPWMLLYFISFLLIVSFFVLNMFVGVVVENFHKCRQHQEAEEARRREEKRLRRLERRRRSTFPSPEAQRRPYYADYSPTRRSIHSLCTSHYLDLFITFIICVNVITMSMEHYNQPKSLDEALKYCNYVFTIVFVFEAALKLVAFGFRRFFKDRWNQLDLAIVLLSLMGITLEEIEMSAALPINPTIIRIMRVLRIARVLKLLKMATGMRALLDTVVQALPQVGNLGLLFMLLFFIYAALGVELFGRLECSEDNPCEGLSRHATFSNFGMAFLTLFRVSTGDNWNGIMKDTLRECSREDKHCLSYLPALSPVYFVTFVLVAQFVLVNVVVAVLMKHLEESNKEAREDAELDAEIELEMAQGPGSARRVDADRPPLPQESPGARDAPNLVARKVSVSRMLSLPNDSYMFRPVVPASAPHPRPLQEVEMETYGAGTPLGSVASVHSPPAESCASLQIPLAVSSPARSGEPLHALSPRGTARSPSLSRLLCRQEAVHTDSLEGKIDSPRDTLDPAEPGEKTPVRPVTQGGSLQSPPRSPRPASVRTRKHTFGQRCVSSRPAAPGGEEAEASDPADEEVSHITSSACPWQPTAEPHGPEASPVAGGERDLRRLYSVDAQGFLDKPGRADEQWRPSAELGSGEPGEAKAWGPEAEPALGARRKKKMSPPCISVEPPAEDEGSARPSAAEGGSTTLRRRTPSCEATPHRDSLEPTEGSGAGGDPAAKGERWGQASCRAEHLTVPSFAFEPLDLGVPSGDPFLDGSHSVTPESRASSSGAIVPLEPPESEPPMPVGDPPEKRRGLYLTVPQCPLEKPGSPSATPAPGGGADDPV
smiles,measurement,setting,value
O=c1oc2ccccc2c(Nc2ccccc2)c1CN1CCCCC1,EC50,[1],3.35 µM (active)
O=C(NCc1ccco1)c1ccc2ccccc2n1,IC50,[2],> 79.4 µM (inactive)
same,IC50,[3],> 79.4 µM (inactive)
same,IC50,[4],> 79.4 µM (inactive)
COc1cc(NCCCCCCCN)c2ncccc2c1,IC50,[5],46.9 µM (inactive)
same,CC50,[6],> 40 µM (active)
same,AC50,[7],2.12 µM (active)
same,EC50,Protein RecA,0.401 µM (active)
Cc1oc(-c2ccc(Cl)cc2)nc1CN1CCC(C(=O)NCc2cccs2)CC1,EC50,[1],1.5 µM (active)
same,EC50,[8],4.32 µM (active)
Cc1cccc(NC(=O)/C(C#N)=C/c2cn(CC(=O)NCc3ccco3)c3ccccc23)c1C,Absolute IC50 (XBP1),X-box-binding protein 1,< 10 µM
same,IC50,SUMO-activating enzyme,36.2 µM (active)
CN(CC(=O)O)c1ccc(C(F)(F)F)cc1[N+](=O)[O-],IC50,[9],> 100 µM (inactive)
same,IC50,[10],> 100 µM (not active)
COc1ccccc1CNC(=O)COC(=O)Cc1ccsc1,IC50,[9],> 100 µM (inactive)
same,IC50,[10],> 100 µM (not active)
Cc1cc(NC(=O)c2cc([N+](=O)[O-])cc([N+](=O)[O-])c2)n(-c2ccccc2)n1,IC50,[9],> 100 µM (inactive)
same,IC50,[10],> 100 µM (not active)
CN(C)CCCN(C(=O)c1ccc(S(=O)(=O)N2CCCC2)cc1)c1nc2c(F)cc(F)cc2s1,EC50,[1],3.76 µM (active)
C=CCn1c(SCC(=O)c2ccc(O)c(O)c2)nnc1-c1ccc(OC)cc1,IC50,[11],> 100 µM (inactive)
same,IC50,[12],13.6 µM (active)
Cc1ccc(-c2nnc(SCC(=O)c3ccc(O)c(O)c3)n2Cc2ccco2)cc1,IC50,[11],19.2 µM (active)
same,IC50,[12],5.32 µM (active)
Cc1cc(C(=O)NCc2ccc(O)c(O)c2)oc1C,IC50,[11],> 100 µM (inactive)
same,IC50,[12],52.7 µM (active)
